Data: patent publication US8697662B2, “Methods for treating Kaposi sarcoma” (PTC Therapeutics, Inc., priority 2009, dated 2014)
Where two headings read alike, the source gives them in different places.

Tests used:
MDA MB 468 xenografts = experiment: Tumor perfusion by DCE-MRI in MDA MB 468 xenografts; type: in vivo, athymic nude mice; conditions: 10 mg/kg oral QD
Source text: Experimental Design. Dynamic contrast-enhanced magnetic resonance imaging can be used preclinically and clinically to evaluate the anatomy of soft tissues, including the identification and accurate measurement of tumor volumes. In addition, evaluation of the intratumoral pharmacokinetics of contrast agents containing gadolinium can be used to measure vascular permeability characteristics. Coupling gadopentetate dimeglumine gadolinium to a […] like bovine serum albumin can reveal information about the necrotic (non-perfused) and non-necrotic (perfused) tumor volumes, and the percentage of vascular blood volume relative to the perfused tumor volume (known as the fractional blood volume [fBV]). Use of a […] tracer, gadopentetate dimeglumine, can reveal information regarding the volume transfer coefficient (K^trans), a variable that represents a combination of vascular permeability, vascular surface area, and blood flow.
Before each DCE-MRI scan, mice were injected intravenously with gadolinium-containing contrast dyes (bovine serum albumin-gadopentetate dimeglumine conjugate at ˜0.03 mmol/kg followed by gadopentetate dimeglumine at ˜0.2 mmol/kg). Baseline DCE-MRI measurements were taken on Day −1, test Compounds were administered on Day 0 through Day 5, and additional DCE-MRI measurements were taken on Days 1, 3, and 5. Image analyses were conducted with customized software. Total tumor volumes were measured by semi-automatically segmenting a region of interest around an anatomical image of the tumor. Tumor volumes of necrotic and non-necrotic tissues were measured by applying the same semi-automated segmentation process to a contrast dyed image. fBV and K^trans were computed using a standard Kety PK model.

HT1080 cells [1] = experiment: Kinetics of S-phase transit by BrdU incorporation in HT1080 cells; type: cell-based, human; conditions: HT1080, 18-hour treatment
Description: Experimental Design. HT 1080 cells are exposed to BrdU (bromodeoxyuridine, a synthetic nucleoside that is an analogue of thymidine and is incorporated into DNA during the S phase of cell division) (FITC BrdU Flow Kit, BD Pharmingen catalog #552598). Cells are grown and treated as described in Section 9.3.1.3 above with the exception that one hour prior to harvesting by trypsinization, BrdU (final concentration 1 μM) is added to each culture for 1 hour. Cells actively replicating DNA during this brief time incorporate the BrdU into the DNA, which can then be quantitated. BrdU content is quantitated with using the FITC BrdU Flow Kit as instructed by the manufacturer. The process includes fixation (paraformaldehyde) and DNA staining with 7-AAD (7-amino-actinomycin D) followed by incubation with a fluoro-tagged anti-BrdU antibody that specifically recognizes BrdU incorporated into DNA. Dual channel FACS analysis permits assessment of both the DNA content of individual cells and the rate of transit across the S-phase, which is assessed based upon BrdU incorporation over the one hour treatment period.

[2] = test system: VEGF secreting cell lines; experiment: Cell cycle effects in several VEGF secreting human tumor cell lines (PI flow cytometry, Table 25); type: cell-based; conditions: all of the tested tumor types; 10 nM or 100 nM, 18 hours
Description: Experimental Design. Several VEGF secreting cell lines were assayed for cell cycle effects. […] At the completion of treatment, cells were harvested and cellular DNA content was analyzed via PI staining and flow cytometry (as described in Section 9.3.1.1).

[3] = Phase 1 escalating multiple-dose study in healthy volunteers: pharmacokinetics (Table 28); type: in vivo, human
Description: (§1) The study was performed under the oversight of the French health authorities. The study was not performed under an IND.
Methods. The trial was a Phase 1, randomized, escalating multiple dose, single center study conducted in 2 stages.
Capsules contained 2 mg or 20 mg of active substance.
Capsules contained 20 mg or 25 mg of active substance.
Noncompartmental methods were used to compute Tmax, Cmax, and AUC. Dose proportionality and sex effect were evaluated using ANOVA on log transformed PK parameters using dose, sex, and dose by sex as fixed factors.

HT1080 cells [4] = experiment: Cell cycle analysis by propidium iodide flow cytometry in HT1080 cells (S-phase accumulation, Table 24); type: cell-based, human; conditions: HT1080, normoxic, 18 hours
Description: Experimental Design. […] After treatment, cells were trypsinized, and stained with propidium iodide (PI) dye to measure DNA content of individual cells by flow cytometry. Output comprised histograms showing relative DNA content in 10,000 cells.
While compounds which cause greater than 20% of the cells to accumulate in S-phase at 100 nM are considered active, a larger percentage of cells may be accumulated in S-phase at lower doses depending on the Compound, as shown in FIG. 12 for example.

[5] = test system: soluble VEGF121 and VEGF165 isoforms; experiment: ELISA of soluble VEGF121/165 production in HeLa cells under hypoxia or normoxia; type: cell-based, human
Description: Experimental Design. HeLa (human cervical carcinoma) cell cultures were established under normoxic conditions (21% oxygen). HeLa cells increase VEGF production 4- to 5-fold in response to hypoxia. […] At the completion of treatment, the conditioned media were collected and the VEGF protein levels were assayed in an enzyme-linked immunosorbent assay (ELISA) with primary antibodies that recognize the soluble VEGF121 and VEGF165 isoforms (R & D Systems, Minneapolis, Minn., USA). To ensure that decreases in VEGF concentration were not due to cytotoxicity, cultures were assayed using a standard assay ([…]-GLO® Luminescent Cell Viability Assay; Promega, Madison, Wis., USA) that measures total cellular adenosine triphosphate (ATP) concentrations as an indicator of cell viability.

physiological VEGF-A = experiment: Phase 1 study in healthy volunteers: plasma and serum physiological VEGF-A concentrations; type: in vivo, human; conditions: any dose tested
Description: as §1
Plasma VEGF Concentrations: Plasma and serum VEGF concentrations and concentration changes from baseline were presented descriptively.

CYP2D6 = target: T1, CYP2D6 (Homo sapiens, UniProt P10635); experiment: CYP inhibition in human hepatic microsomes or recombinant isoenzymes: CYP2D6; type: in vitro ADME
T1 construct: host or cells: human hepatic microsomes or human recombinant isoenzymes
Source text: It is possible that in certain clinical trial subjects, such agents may need to be adjusted for dosing or replaced by alternative agents that are not metabolized by CYP2D6, particularly when such agents may have a low therapeutic index.

[6] = 7-day oral toxicity study in rats; conditions: Sprague Dawley, rat, in vivo; for NOAEL at 7 days: oral gavage
Description: A battery of genotoxicity studies was also performed. […] The L23 vehicle was used.
Maximal exposures occurred at a dose of 120 mg/kg/day.

T1 sequence (P10635 whole entry): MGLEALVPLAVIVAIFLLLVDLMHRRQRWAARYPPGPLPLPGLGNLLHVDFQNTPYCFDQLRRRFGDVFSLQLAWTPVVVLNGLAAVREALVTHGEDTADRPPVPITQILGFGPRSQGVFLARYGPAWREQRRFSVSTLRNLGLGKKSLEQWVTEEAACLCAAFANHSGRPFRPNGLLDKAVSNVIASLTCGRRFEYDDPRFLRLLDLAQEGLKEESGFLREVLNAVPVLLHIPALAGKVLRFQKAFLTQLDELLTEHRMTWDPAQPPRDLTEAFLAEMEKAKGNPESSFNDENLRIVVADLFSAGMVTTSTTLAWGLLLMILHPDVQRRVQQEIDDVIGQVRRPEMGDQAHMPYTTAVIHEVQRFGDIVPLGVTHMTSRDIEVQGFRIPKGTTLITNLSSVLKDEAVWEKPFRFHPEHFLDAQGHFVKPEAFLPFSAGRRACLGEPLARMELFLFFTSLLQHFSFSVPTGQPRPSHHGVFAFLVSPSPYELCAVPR

COc1ccc(C2c3[nH]c4ccc(Cl)cc4c3CCN2C(=O)Oc2ccc(Cl)cc2)cc1 (racemic) [Compound #10]
mean K^trans in non-necrotic tissue (in words) (MDA MB 468 xenografts; Day -1 to Day 5): decreased
mean non-necrotic tumor volume (in words) (MDA MB 468 xenografts; Day -1 to Day 5): decreased
mean total tumor volume (DCE-MRI), change (in words) (MDA MB 468 xenografts; Day -1 to Day 5): little mean change
mean necrotic (non perfused) tumor volume (in words) (MDA MB 468 xenografts; significant by Day 1): rapidly increased
mean tumor fBV in non-necrotic tissue (in words) (MDA MB 468 xenografts; significant vs vehicle on Day 5): declined after Day 3
BrdU incorporation by individual cells during the one-hour period vs DMSO control (in words) (HT1080 cells [1]): incorporated less BrdU
percentage of cells residing in S-phase (in words) (HT1080 cells [1]; increasing doses): net increase
cell cycle delay versus inhibition of VEGF production (in words) [2]: coincident with the inhibition of VEGF production
oral bioavailability (in words) [3]: orally bioavailable
increases in mean Cmax and AUC0-24 with dose (in words) ([3]; Stage 1 and Stage 2): generally dose proportional
target trough plasma concentration of ~0.1 to […] (in words) ([3]; all dose levels): achieved
accumulation of Cmax and AUC0-24, Day 1 to Day 7 ([3]; continuous dosing 7 days): ~2 fold
lag time before appearance in plasma ([3]; oral capsules): ~30 min
concentration from which an accumulation of cells in S phase can be observed (HT1080 cells [4]): ≥ 1 nM
cell cycle distribution, DNA content (in words) (HT1080 cells [4]; Compound #10 0.3 nM to 100 nM, Compound 1205 10 nM): induced a redistribution of the cycling characteristics of the cell population
decrease in VEGF concentrations in conditioned media ([5]; normoxic, 48 hours): 39%
inhibition of VEGF production (in words) ([5]; stress (hypoxia)-induced VEGF): inhibit stress-induced VEGF production
plasma or serum physiological VEGF-A concentrations (physiological VEGF-A): No significant alterations
inhibition of CYP2D6 isoenzyme (in words) (CYP2D6): inhibits the activity
dose at which maximal exposures occurred ([6]; 7 days): 120 mg/kg/day
NOAEL at 7 days ([6]; female, read-out: NOAEL for 7-days, female rats): 120 mg/kg/day
NOAEL at 7 days ([6]; male, read-out: NOAEL for 7-days, male rats): 40 mg/kg/day
